Test results reported in US7157430B2, “(Substituted)acyl dipeptidyl inhibitors of the ICE/CED-3 family of cysteine proteases” (Idun Pharmaceuticals, Inc., priority 1998, dated 2007).
pIC50: −log10 of the molar value. Like-named read-outs stand apart in the source and are kept apart here. Where a SMILES comes first, the peptide text is derived from it. The star is where a group is joined. Hydrocinnamoyl = O=C(CCc1ccccc1)*

How the values were obtained:
Format in all cases: biochemical
mICE = target: T1, mICE (Mus musculus, UniProt P29452); assay: Fluorescence enzyme assay, IC50 determination, ICE
T1 sequence (P29452 123-296 limits assumed): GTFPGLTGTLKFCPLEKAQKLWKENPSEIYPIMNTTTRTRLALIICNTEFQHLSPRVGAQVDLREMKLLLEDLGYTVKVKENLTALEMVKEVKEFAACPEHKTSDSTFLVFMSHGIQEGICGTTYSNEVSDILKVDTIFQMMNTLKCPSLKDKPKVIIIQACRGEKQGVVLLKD
T1 sequence (P29452 315-402 limits assumed): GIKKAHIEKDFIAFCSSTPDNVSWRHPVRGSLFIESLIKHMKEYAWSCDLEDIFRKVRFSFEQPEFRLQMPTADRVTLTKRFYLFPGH
Procedure: (§1) Fluorescence enzyme assays detecting the activity of the compounds of Formula 1 utilizing the recombinant ICE and CPP32 enzymes are performed essentially according to Thornberry et al. (Nature, 356:768:774 (1992)) and Nicholson et al. (Nature, 376:37–43 (1995)) respectively, (herein incorporated by reference) in 96 well microtiter plates. The substrate is Acetyl-Tyr-Val-Ala-Asp-amino-4-methylcoumarin (AMC) for the ICE assay and Acetyl-Asp-Glu-Val-Asp-amino-4-methylcoumarin for the CPP32, Mch2, Mch3 and Mch5 assays. Enzyme reactions are run in ICE buffer (25 mM HEPES, 1 mM EDTA, 0.1% CHAPS, 10% sucrose, pH 7.5) containing 2 mM DTT at room temperature in duplicate.
(§2) The enzyme and the compound of Formula I to be assayed are allowed to preincubate in the microtitre plate wells for 30 minutes at room temperature prior to the addition of substrate to initiate the reaction. Fluorescent AMC product formation is monitored for one hour at room temperature by measuring the fluorescence emission at 460 nm using an excitation wavelength of 360 nm. The fluorescence change in duplicate (control) wells are averaged and the mean values are plotted as a function of inhibitor concentration to determine the inhibitor concentration producing 50% inhibition (IC50). The results of this assay are set forth below in Table 1 and in Table 3 (for Table 3, see Examples 11 through 52).
(§3) The reference compound for this assay was Cbz-ValAlaAsp-H and the values are denoted in Table 1 as “Reference”.

MCH-5 = MCH-5 (Homo sapiens, UniProt Q14790); assay: Fluorescence enzyme assay, IC50 determination, Mch5
Procedure: as §1, §2, §3

CPP32 = target: T2, CPP32 (Homo sapiens, UniProt P42574); assay: Fluorescence enzyme assay, IC50 determination, CPP32
T2 sequence (P42574 29-175 limits assumed): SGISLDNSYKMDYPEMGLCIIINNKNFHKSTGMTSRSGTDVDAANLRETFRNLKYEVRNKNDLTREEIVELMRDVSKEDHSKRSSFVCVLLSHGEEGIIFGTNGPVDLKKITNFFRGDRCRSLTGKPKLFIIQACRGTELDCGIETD
T2 sequence (P42574 176-277 limits assumed): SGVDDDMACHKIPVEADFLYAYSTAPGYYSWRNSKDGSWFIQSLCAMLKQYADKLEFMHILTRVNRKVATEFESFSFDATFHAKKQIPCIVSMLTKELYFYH
Procedure: as §1, §2, §3

MCH-2 = target: T3, MCH-2 (Homo sapiens, UniProt P55212); assay: Fluorescence enzyme assay, IC50 determination, Mch2
T3 sequence (P55212 24-179 limits assumed): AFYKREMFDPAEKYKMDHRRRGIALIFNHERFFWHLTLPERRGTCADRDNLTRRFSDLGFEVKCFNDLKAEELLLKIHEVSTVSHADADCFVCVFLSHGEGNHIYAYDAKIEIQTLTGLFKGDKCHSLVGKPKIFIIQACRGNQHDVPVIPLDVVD
T3 sequence (P55212 194-293 limits assumed): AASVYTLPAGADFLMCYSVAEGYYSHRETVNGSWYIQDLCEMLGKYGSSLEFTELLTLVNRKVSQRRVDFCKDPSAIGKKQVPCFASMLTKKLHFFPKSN
Procedure: as §1, §2, §3

MCH-3 = target: T4, MCH-3 (Homo sapiens, UniProt P55210); assay: Fluorescence enzyme assay, IC50 determination, Mch3
T4 sequence (P55210 24-198 limits assumed): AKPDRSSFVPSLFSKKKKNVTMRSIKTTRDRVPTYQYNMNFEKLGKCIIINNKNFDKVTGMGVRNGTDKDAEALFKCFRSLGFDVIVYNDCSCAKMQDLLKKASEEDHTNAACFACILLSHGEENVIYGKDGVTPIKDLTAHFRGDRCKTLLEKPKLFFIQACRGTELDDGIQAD
T4 sequence (P55210 207-303 limits assumed): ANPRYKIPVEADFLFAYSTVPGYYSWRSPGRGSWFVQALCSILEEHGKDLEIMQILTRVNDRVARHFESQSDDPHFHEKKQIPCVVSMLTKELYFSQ
Procedure: as §1, §2, §3

[1] = recombinant enzyme, Ac-YVAD-AMC substrate, 30 min preincubation, room temperature, read-out: mICE IC50
[2] = Ac-DEVD-AMC substrate, 30 min preincubation, room temperature, read-out: MCH-5 IC50
[3] = recombinant enzyme, Ac-DEVD-AMC substrate, 30 min preincubation, room temperature, read-out: CPP32 IC50
[4] = Ac-DEVD-AMC substrate, 30 min preincubation, room temperature, read-out: MCH-2 IC50
[5] = Ac-DEVD-AMC substrate, 30 min preincubation, room temperature, read-out: MCH-3 IC50
[6] = Table 3, method of Preparation 3A, read-out: mICE I50
[7] = Table 3, method of Preparation 3A, read-out: MCH5 I50
[8] = Table 3, method of Preparation 3A, read-out: CPP32 I50
[9] = Table 3, method of Preparation 3A, read-out: MCH2 I50
[10] = Table 3, method of Preparation 3A, read-out: MCH3 I50

Sequence of MCH-5 (Q14790 217-374 limits assumed, species assumed): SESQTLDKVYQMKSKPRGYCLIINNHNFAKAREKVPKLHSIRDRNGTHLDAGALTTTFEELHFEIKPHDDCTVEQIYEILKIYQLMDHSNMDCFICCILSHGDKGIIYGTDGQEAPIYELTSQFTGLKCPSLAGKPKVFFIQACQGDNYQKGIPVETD
Sequence of MCH-5 (Q14790 385-479 limits assumed, species assumed): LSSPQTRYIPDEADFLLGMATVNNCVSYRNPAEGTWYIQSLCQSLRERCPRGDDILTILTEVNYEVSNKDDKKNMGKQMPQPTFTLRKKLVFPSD

Row | Structure (SMILES) | pIC50 (mICE; [1]) | pIC50 (MCH-5; [2]) | pIC50 (CPP32; [3]) | pIC50 (MCH-2; [4]) | pIC50 (MCH-3; [5]) | pIC50 (mICE; [6]) | pIC50 (MCH-5; [7]) | pIC50 (CPP32; [8]) | pIC50 (MCH-2; [9]) | pIC50 (MCH-3; [10])
1 | CC(C)C[C@H](NC(=O)COc1cccc2ccccc12)C(=O)N[C@H](C=O)CC(=O)O [Example 1, (3S)-3-[N-((1-Naphthyloxy)Acetyl)Leucinyl]Amino-4-Oxobutanoic Acid] | 6.27 | 6.17 | 6.85 | 6.00 | 5.81 | – | – | – | – | –
2 | CC(C)[C@H](NC(=O)COc1cccc2ccccc12)C(=O)N[C@H](C=O)CC(=O)O [Example 2, (3S)-3-[N-((1-Naphthyloxy)Acetyl)Valinyl]Amino-4-Oxobutanoic Acid] | 6.47 | 5.92 | 6.45 | < 5.00 | 5.68 | – | – | – | – | –
3 | CC(C)[C@H](NC(=O)COc1ccc2ccccc2c1C(=O)O)C(=O)N[C@H](C=O)CC(=O)O [Example 5, (3S)-3-[N-((1′-Carboxy-2′-Naphthyloxy)Acetyl)Valinyl]Amino-4-Oxobutanoic Acid] | 5.53 | 6.13 | 6.40 | 5.44 | 4.96 | – | – | – | – | –
4 | CC(C)[C@H](NC(=O)COc1c(C(=O)O)ccc2ccccc12)C(=O)N[C@H](C=O)CC(=O)O [Example 6, (3S)-3-[N-((2′-Carboxy-1′-Naphthyloxy)Acetyl)Valinyl]Amino-4-Oxobutanoic Acid] | 6.41 | 7.32 | 7.27 | 5.84 | 5.78 | – | – | – | – | –
5 | CC(C)[C@H](NC(=O)COc1cc2ccccc2cc1C(=O)O)C(=O)N[C@H](C=O)CC(=O)O [Example 7, (3S)-3-[N-((3′-Carboxy-2′-Naphthyloxy)Acetyl)Valinyl]Amino-4-Oxobutanoic Acid] | 5.72 | 6.70 | 6.14 | 5.72 | 4.77 | – | – | – | – | –
6 | CC(C)C[C@H](NC(=O)CNc1cccc2ccccc12)C(=O)N[C@H](C=O)CC(=O)O [Example 8, (3S)-3-[N-((1-Naphthylamino)Acetyl)Leucinyl]Amino-4-Oxobutanoic Acid] | 7.48 | 8.12 | 7.89 | 7.43 | 5.88 | – | – | – | – | –
7 | CC(C)C[C@H](NC(=O)COc1cccc2c1OC(C)(C)C2)C(=O)N[C@H](C=O)CC(=O)O [Example 10, (3S)-3-[N-((2,3-Dihydro-2,2-Dimethyl-Benzofuranyloxy)Acetyl)Leucinyl]Amino-4-Oxobutanoic Acid] | 5.20 | 5.20 | 6.62 | 4.88 | 5.63 | – | – | – | – | –
8 | CC(C)C[C@H](NC(=O)CCc1cccc2ccccc12)C(=O)N[C@H](C=O)CC(=O)O [Example 11] | – | – | – | – | – | 5.73 | 4.91 | 5.80 | 5.38 | 5.06

The next lines start with the values.

Row | pIC50 (mICE; [1]) | pIC50 (MCH-5; [2]) | pIC50 (CPP32; [3]) | pIC50 (MCH-2; [4]) | pIC50 (MCH-3; [5]) | pIC50 (mICE; [6]) | pIC50 (MCH-5; [7]) | pIC50 (CPP32; [8]) | pIC50 (MCH-2; [9]) | pIC50 (MCH-3; [10]) | Structure (SMILES)
9 | – | – | – | – | – | 6.22 | 6.09 | 6.86 | 6.07 | 5.71 | CC(C)C[C@H](NC(=O)COc1cccc2ccccc12)C(=O)N[C@H](C=O)CC(=O)O [Example 12]
10 | – | – | – | – | – | 5.59 | < 5.00 | 6.03 | 4.73 | 5.05 | CC(C)C[C@H](NC(=O)COc1ccc2ccccc2c1)C(=O)N[C@H](C=O)CC(=O)O [Example 13]
11 | – | – | – | – | – | 5.56 | 5.13 | 6.71 | 5.84 | 5.76 | CC(C)C[C@H](NC(=O)CSc1cccc2ccccc12)C(=O)N[C@H](C=O)CC(=O)O [Example 16]
12 | – | – | – | – | – | 6.10 | 4.96 | 6.57 | 5.50 | 5.60 | CC(C)C[C@H](NC(=O)CSc1ccc2ccccc2c1)C(=O)N[C@H](C=O)CC(=O)O [Example 17]
13 | – | – | – | – | – | 5.74 | < 4.30 | 5.56 | 4.84 | 4.74 | CC(C)C[C@H](NC(=O)CCCc1ccc2ccccc2c1)C(=O)N[C@H](C=O)CC(=O)O [Example 18]
14 | – | – | – | – | – | < 5.00 | < 5.00 | 5.01 | – | < 5.00 | CC(C)C[C@H](NC(=O)CCc1ccccc1)C(=O)N[C@H](C=O)CC(=O)O [Example 35] (Hydrocinnamoyl-Leu-Asp-aldehyde)
